Data as given in patent publication US20130059096A1, “METHODS AND COATINGS FOR TREATING BIOFILMS” (President and Fellows of Harvard College, priority 2010, published 2013).
Read-outs that look alike come from different tables or passages of the source.

Columns and labels:
[1] = tested on: P.a. Harvard PA14; test: Biofilm (colony architecture) formation on defined M63 medium; format: cell-based, Pseudomonas aeruginosa; settings: 500 μM
Source text: Similarly to Bacillus subtilis, Pseudomonas aeruginosa forms a complex architecture on defined medium. These complex structures require the proper formation and assembly of the extra-cellular matrix. […] For these experiments, the organism/strain was P.a. Harvard PA14, the culture medium was M63 and the cell inoculation was at 1.5×10^9 cfu.

[2] = tested on: Bacillus subtilis NCIB3610; test: Pellicle (biofilm) formation in liquid biofilm-inducing medium; format: cell-based; settings: for Inhibition of biofilm formation (FIG. 5): MSgg medium; for minimum concentration (MIC for Minimal Inhibitory Concentration) needed to prevent biofilm formation: FIG. 2B, complete inhibition of pellicle formation; for Biofilm-inhibition assay for B. subtilis: summary statement, concentration not given
Method: (§1) Colony and pellicle formation. For colony formation on solid medium, cells were first grown to exponential growth phase in LB broth and 3 μl of culture were spotted onto solid MSgg medium containing 1.5% Bacto agar. The plates were incubated at 23° C. For pellicle formation in liquid medium, cells were grown to exponential phase and 6 μl of culture were mixed with 6 ml of medium in a 12-well plate (VWR). Plates were incubated at 23° C. Images of colonies and pellicles were taken using a SPOT camera (Diagnostic Instruments, USA).
Preparing conditioned medium. Cells were grown in LB medium to exponential phase. 0.1 ml of culture was added to 100 ml of MSgg medium and grown without shaking in a 500 ml beaker at 23° C. Next, pellicles and conditioned medium was collected by centrifugation at 8,000 rpm for 15 min. The conditioned medium (supernatant fluid) was removed and filtered through a 0.22 μm filter. The filtrates were stored at 4° C. For further purification the biofilm-inhibiting activity was fractionated on a C-18 Sep Pak cartridge using stepwise elution of 0% to 100% methanol with steps of 5%.
To investigate whether mature biofilms produce a factor that triggers biofilm disassembly, the effect of concentrated and partially purified extracts of conditioned medium on pellicle formation when added to fresh medium was assayed. To this end, conditioned medium from an eight-day-old culture was applied to a C18 Sep Pak column. Concentrated eluate from the column was then added to a freshly inoculated culture. […] Further purification of the factor was achieved by eluting the cartridge in step-wise fashion with increasing concentrations of methanol.
Next, the minimum concentration (MIC for Minimal Inhibitory Concentration) needed to prevent biofilm formation was determined.

[3] = tested on: Pseudomonas aeruginosa PA14; test: Biofilm formation on polystyrene, crystal violet staining; format: cell-based; settings: Pseudomonas aeruginosa, read-out: % Inhibition relative to control (0%, <50%, 50-90%, >90%)
Method: Crystal violet staining Crystal violet staining was done as described previously (O'Toole et al., Mol. Microbiol. 30:295 (1998)) except that the cells were grown in 6-well plates. Wells were stained with 500 μl of 1.0% Crystal-violet dye, rinsed twice with 2 ml double-distilled water and thoroughly dried.
P. aeruginosa strain […] was grown in 12-well polystyrene plates for 48 hours at 30° C. in M63 medium containing glycerol (0.2%) and Casamino acids (20 μg/ml). Additionally added to the wells were no amino acids (untreated), D-tyrosine or the D-amino acid equimolar mixture. Cells bound to the polystyrene were visualized by washing away unbound cells and then staining with crystal violet. Wells were stained with 500 μl of 1.0% Crystal-violet dye, rinsed twice with 2 ml double-distilled water and thoroughly dried.
(§2) For experiments reported in Table 1, the organism/strain was S.a. Harvard SCO1, the culture medium was TSB and the cell inoculation was at 2×10^9 cfu. For experiments reported in Table 2, the organism/strain was […], the culture medium was M63 and the cell inoculation was at 1.5×10^9 cfu. Biofilm was visualized using the crystal violet method.

[4] = tested on: S. aureus (strain SCO1); test: as above; format: cell-based, Staphylococcus aureus; settings: Staphylococcus aureus, read-out: % Inhibition relative to control (0%, <50%, 50-90%, >90%)
Method: Crystal violet staining Crystal violet staining was done as described previously (O'Toole et al., Mol. […] Wells were stained with 500 μl of 1.0% Crystal-violet dye, rinsed twice with 2 ml double-distilled water and thoroughly dried.
The effect of D-amino acids on biofilm formation by other bacteria was examined. The pathogenic bacterium Staphylococcus aureus forms biofilms on plastic surfaces (Otto, Curr. Top. Microbiol. Immunol. 322:207 (2008)), which can be detected by washing away unbound cells and staining the bound cells with crystal violet. […] Additionally added to the wells were no amino acids (untreated), D-tyrosine (50 μM) or the D-amino acid mixture ([…] each). Cells bound to the polystyrene were visualized by washing away unbound cells and then staining with crystal violet.
as §2, with “method. The data is shown below in Tables 1 and 2:” for “method.”
For experiments reported in Tables 3 and 4, the organism/strain was S.a. Harvard SCO1, the culture medium was TSB and the cell inoculation was at 2×10^9 cfu. Biofilm was visualized using the crystal violet method.

[5] = tested on: matrix operons eps and yqxM; test: Expression of PyqxM-lacZ and PepsA-lacZ (β-galactosidase activity); format: cell-based, Bacillus subtilis; settings: 8.5 mM, strains FC122 and FC5, MSgg, shaking
Method: Assays of β-galactosidase activity. Cells were cultured in MSgg medium at 37° C. in a water bath with shaking 1 ml of culture was collected at each time point. β-galactosidase activity was determined as described previously (Chai et al., Mol. Microbiol. 67:254 (2008)).

[6] = tested on: Bacillus subtilis NCIB3610; test: Colony biofilm formation on solid MSgg medium; format: cell-based; settings: 8.5 mM, 4 days
Method: as §1

[7] = tested on: Bacillus subtilis; test: Cell growth in MSgg medium with shaking; format: cell-based; settings: 8.5 mM
[8] = tested on: Pseudomonas aeruginosa; test: Attached single cells in well plate, Syto-9 staining; format: cell-based; settings: Pseudomonas aeruginosa, 12 h, read-out: % Inhibition relative to control (0%, <50%, 50-90%, >90%)
Method: An alternative method to observe biofilm formation on a 6 well plate with or without D-amino acids and using Syto-9 staining was as follows: Pseudomonas aeruginosa biofilms were washed twice with PBS and then fixed for at least an hour in 5% Glutaraldehyde in PBS. The fixed biofilms were then rinsed once again with PBS and soaked in 0.1% v/v Triton X-100 in PBS (PBST) for 15 minutes. The solution was exchanged with 0.1 nM […] (Invitrogen) in cold PBST and gently rocked in the dark for at least 15 minutes. Fluorescence images of the biofilms were captured with a Leica DMRX compound microscope using a Xe lamp and a K3 Leica filtercube. […] The amount of attached single cells was quantified using image J. The decrease in the amount of cells attached to the epoxy surfaces soaked with D-aa compared with the L-aa control was substantially more.

[9] = Table 3, 10 μM, 24 h/37° C., polystyrene, TSB
[10] = Table 3, 100 μM, 24 h/37° C., polystyrene, TSB
[11] = Table 3, 500 μM, 24 h/37° C., polystyrene, TSB
[12] = PA14, Table 2, 100 nM, 48 h/30° C., polystyrene, M63
[13] = Table 1, 100 nM, 24 h/37° C., polystyrene, TSB
[14] = Table 1, 10 μM, 24 h/37° C., polystyrene, TSB
[15] = Table 1, 100 μM, 24 h/37° C., polystyrene, TSB
[16] = Table 1, 500 μM, 24 h/37° C., polystyrene, TSB

In the case of `N[C@H](Cc1c[nH]c2ccccc12)C(=O)O` [D-tryptophan], the “Biofilm formation on defined medium (FIG. 20)” value (“Biofilm formation … (FIG. 20)” below) [1] is reported as “inhibited biofilm formation”, the “Inhibition of biofilm formation (FIG. 5)” value ([2]; 0.5 mM, 3 days) is reported as “active in inhibiting biofilm formation” and the “minimum concentration (MIC for Minimal Inhibitory Concentration) needed to prevent biofilm formation” value [2] is reported as “around 1 mM”. For the same molecule, the “Biofilm-inhibition assay for B. subtilis” value [2] was “significant inhibition of biofilm growth”, the inhibition at 0.1 µM ([3]; PA14, 48 h) was 0% and the inhibition at 10 µM ([3]; PA14, 48 h) was under 50%. It also gave an inhibition at 100 µM ([3]; PA14, 48 h) of 50 to 90%, an inhibition at 500 µM ([3]; PA14, 48 h) of 50 to 90% and an inhibition at 0.1 µM ([4]; 24 h) of 0%. It also gave an inhibition at 10 µM ([4]; 24 h) of 0%, an inhibition at 100 µM ([4]; 24 h) of under 50% and an inhibition at 500 µM ([4]; 24 h) of under 50%.
With `O=C(O)[C@H]1CCCN1` [D-proline] the inhibition at 10 µM [4, 9] was under 50%, the inhibition at 100 µM [4, 10] was under 50% and the inhibition at 500 µM [4, 11] was over 90%. For the same molecule, the inhibition at 1000 µM ([4]; Table 3, 1 mM, 24 h/37° C., polystyrene, TSB) was over 90%.
For `CC(C)C[C@@H](N)C(=O)O` [D-leucine], the “yqxM and eps expression (FIG. 9A, 9B)” value [5] was “substantially the same as the untreated sample”, the “Biofilm formation on solid MSgg medium (FIG. 6)” value [6] was “inhibited biofilm formation” and the “Effect on pellicle formation (FIG. 2A)” value ([2]; 8.5 mM, freshly inoculated culture, biofilm-inducing medium, 3 days) was “significant inhibition of biofilm growth”. For the same molecule, the “minimum concentration (MIC for Minimal Inhibitory Concentration) needed to prevent biofilm formation” value [2] was “around 1 mM”, the “Biofilm-inhibition assay for B. subtilis” value [2] was “significant inhibition of biofilm growth” and the “Cell growth (FIG. 8)” value [7] was “substantially the same as the untreated sample”. It also gave an inhibition at 0.1 µM [3, 12] of 0%, an inhibition at 10 µM ([3]; PA14, Table 2, 10 μM, 48 h/30° C., polystyrene, M63) of 0% and an inhibition at 100 µM ([3]; PA14, Table 2, 100 μM, 48 h/30° C., polystyrene, M63) of 0%. The inhibition at 500 µM ([3]; PA14, Table 2, 500 μM, 48 h/30° C., polystyrene, M63) was 0%, the inhibition at 0.1 µM [4, 13] was 0% and the inhibition at 10 µM [4, 14] was 0%. The inhibition at 100 µM [4, 15] was 0% and the inhibition at 500 µM [4, 16] was 0%.
With `C[C@@H](N)C(=O)O` [D-alanine] the “Biofilm-inhibition assay for B. subtilis” value [2] was “not effective”.
`CSCC[C@@H](N)C(=O)O` [D-methionine] was tested, and the “Inhibition of biofilm formation (FIG. 5)” value ([2]; 2 mM, 3 days) was “active in inhibiting biofilm formation”, the “minimum concentration (MIC for Minimal Inhibitory Concentration) needed to prevent biofilm formation” value [2] was “around 1 mM” and the “Biofilm-inhibition assay for B. subtilis” value [2] was “significant inhibition of biofilm growth”. For the same molecule, the inhibition at 0.1 µM [3, 12] was 0%, the inhibition at 0.1 µM [4, 13] was 0% and the inhibition at 10 µM [4, 14] was 0%. It also gave an inhibition at 100 µM [4, 15] of 0% and an inhibition at 500 µM [4, 16] of 0%.
With `N[C@@H](Cc1ccc(O)cc1)C(=O)O` [L-tyrosine, reference compound] the “Biofilm formation … (FIG. 20)” value [1] was “did not” and the inhibition at 500 µM [8] was 0%.
With `N[C@@H](Cc1c[nH]c2ccccc12)C(=O)O` [L-tryptophan, reference compound] the “Biofilm formation … (FIG. 20)” value [1] was “did not” and the “Inhibition of biofilm formation (FIG. 5)” value ([2]; 5 mM, 3 days) was “Only the D-amino acids were active”.
In the case of `N[C@H](Cc1ccccc1)C(=O)O` [D-phenylalanine], the “Biofilm-inhibition assay for B. subtilis” value [2] is reported as “not effective”, the inhibition at 10 µM [4, 9] is reported as under 50% and the inhibition at 100 µM [4, 10] is reported as under 50%. It also gave an inhibition at 500 µM [4, 11] of over 90%.
With `CSCC[C@H](N)C(=O)O` [L-methionine, reference compound] the “Inhibition of biofilm formation (FIG. 5)” value ([2]; 5 mM, 3 days) was “Only the D-amino acids were active”.
